# Measured values: patent publication US9993492B2, “Lysophospholipids and lysophospholipid analogues against honeybee brood diseases” (University of Graz, priority 2013, dated 2018)
# Where two headings read alike, the source gives them in different places.
# Columns and labels:
# [1] = system: Paenibacillus larvae; assay: Antimicrobial assay in BHI liquid medium, vegetative forms of Paenibacillus larvae (MIC); format: cell-based; conditions: for MIC: Paenibacillus larvae
# Protocol: For the evaluation of certain fatty acids and phospholipids, overnight cultures of vegetative forms of Pl were used (for results see Table 1.1).
# (§1) As test organisms, several different strains of Paenibacillus larvae were used.
# (§2) Overnight cultures of the vegetative forms of bacteria were prepared in BHI (brain heart infusion) liquid medium.
# From these overnight cultures, an inoculum of 50 μl is added to 1.0 ml of BHI liquid medium to perform the bacterial test in liquid medium. The compound 1-O-oleoyl-sn-glycero-3-phosphocholine (oleoyl-LPC) together with a positive control was then added at concentrations of 2, 5 and 10 ppm and the test tubes were incubated for 24 h at 34.5° C. Then, the extinction of the solution was measured photometrically.
# [2] = system: Melissococcus plutonius; assay: Antimicrobial assay in liquid Basal Medium against Melissococcus plutonius (MIC); format: cell-based; conditions: Melissococcus plutonius
# Protocol: M. pl. was cultured in liquid Basal Medium (BM) for 4 days at 35° C. and from here serial dilutions were carried out to estimate CFU/ml by plating onto BM agar plates. 5 days later CFU were count and concentration was estimated to be 3.46*10^6 CFU/ml. For the antimicrobial assay, an inoculum of 50 μl of the liquid culture is added to 1 mL of BM liquid medium. A set of different substances were tested in different concentrations (2, 5 and 10 ppm) in order to find out their inhibitory effect against M. pl growth. For substances tested, concentration applied and results see table 1.2. Three replicates per substance were included in the experiment. 5 days after the experiment was started OE (optical extinction) was measured at 600 nm.
# [3] = system: Paenibacillus larvae (Eric II test strain); assay: Inhibition zone test on Columbia agar; format: cell-based; conditions: Paenibacillus larvae, 24 h, 34.5° C.
# Protocol: as §1, §2
# For the inhibition zone test, 500 μL of overnight culture were added to 15-20 mL of Columbia agar, mixed and poured onto a petri dish. After the agar solidified, either punched wholes are filled with different amounts of test compounds or test compounds are pipetted on paper discs (5 mm Ø). The plate is then incubated for 24 h (34.5° C.) and zones of inhibition are measured and given in mm. Lactic acid and penicillin G were used as positive controls.
# E II—Eric II (test strain of Pl)
# [4] = system: honeybee larvae; format: in vivo; conditions: LPC 10 μg/larva added on day 1, Nlarvae 192
# Protocol: (§3) First instar larvae were transferred into plastic queen cups and fed the following diets: On the first day 10 μL of diet containing 6% glucose, 6% fructose, 1% yeast extract and 50% royal jelly were fed. Test substances (1-O-oleoyl-sn-glycero-3-phosphocholine (oleoyl-LPC), stearic acid, lysophosphatidylinositol and linoleic acid) were added to the first diet in amounts of 0.5 to 10 μg/larvae. For infection with spores of Paenibacillus larvae, larvae were grafted into 5 μL of diet containing test substances and subsequently 5 μL of diet with about 50 added Pl spores were given. Larvae were not fed on the second day to assure the consumption of the given diet. On the third day 20 μL of diet containing 7.5% glucose, 7.5% fructose, 1.5% yeast extract and 50% royal jelly were fed. Amounts of 30, 40 and 60 μL of diet composed of 9% glucose, 9% fructose, 2% yeast extract and 50% royal jelly were fed on the 4th, 5th and 6th day (method modified after Aupinel et al. [Aupinel et al. 2005. Bull Insectol 58:107-111]. Larvae were incubated at 34.5° C. and 95% relative humidity which was reduced to 80% on day 7. The mortality was checked daily for the first 7 days and when individuals emerged from queen cups at day 18 after the transfer into cups. To reduce the time for sporulation of Pl in the lab for security reasons, infection tests with Pl spores were stopped at day 7 with some experiments extend to day 12.
# Larvae were fed according to a slightly modified rearing method of Aupinel et al., (2005). Larvae were fed for 6 days with different amounts of diets which always contained 50% of an aqueous solution (A, B, C) and 50% royal jelly (w/w). The solutions consisted of yeast extract (A=2%, B=3%, C=4%), glucose and fructose (A=12%, B=15%, C=18% each). 50 g portions of royal jelly (purchased from the Styrian school of beekeepers) were freeze stored at −20° C. Once a day all components of the needed diet were mixed freshly, warmed and fed to the larvae with a micro-pipette. On day 1 and 2 each larva was fed with 10 μL of diet A, on day three with 20 μL of diet B, on day four (30 μL), five (40 μL) and six (50 μL) with diet C. This way, each larva was supported with a total amount of 160 μL of food. The test compounds (see Table 4) were added each at the respective concentration on day 1, i.e. stearic acid (10 μg/larva), lysophosphatidylinositol (5 μg/larva), linoleic acid (12 μg/larva) and oleyol-LPC (10 μg/larva). Each larva was checked for its state of health under the binocular before feeding. A larva was defined healthy when movements of spiracles could be observed and it was shiny and plump. Cups with dead larvae were removed from the plate to prevent infections. To avoid microbial contamination, feeding took place under a laminar flow. Larvae were incubated at 34.5° C. and 90% RH. The mortality rates of the larvae are given below in table 4.1.
# [5] = system: Pl-infected larvae; assay: In vivo effect of LPC on Pl-infected larvae; set-up: species or system Apis mellifera; conditions: LPC 10 μg/larva on day 1, 2 and 3 + 50 spores/larva (ERIC II, strain 233/00) on day 1, replicates separated by /, Nlarvae 71/48/48
# Protocol: as §3
# In vivo effect of LPC on Pl-infected larvae: Artificial larval rearing was performed as described above. Larvae were individually infected with a dose of c. 50 spores/larva (ERIC II, strain 233/00) given on the first day. LPC was administered on day 1, 2 and 3 in a dose of 10 μg/d. Mortality was checked daily until d 12.
compound,measurement,setting,value
CCCCCCCC/C=C\CCCCCCCC(=O)OC[C@@H](O)COP(=O)([O-])OCC[N+](C)(C)C [1-O-oleoyl-sn-glycero-3-phosphocholine],MIC,"[1]; 24 h, vegetative forms of Pl, liquid medium, read-out: MIC (ppm)",2 to 5 µg/mL
same,MIC,"[1]; in vitro, read-out: in vitro Pl inhibitory activity, MIC",2.5 µg/mL
same,MIC,"[1]; vegetative forms of Pl, liquid medium, read-out: MIC",> 3.8 µM
same,inhibitory / antibacterial activity against Pl (in words),[1]; in vitro,good in vitro Pl inhibitory activity
same,MIC,"[2]; 120 h, M. pl. in BM liquid medium, OE at 600 nm after 5 days, read-out: MIC",> 3.8 µM
same,MIC,"[2]; 120 h, M. pl. in BM liquid medium, OE at 600 nm after 5 days, read-out: MIC (ppm)",2 µg/mL
same,MIC,"[2]; read-out: in vitro M. pl. inhibitory activity, MIC",2.5 µg/mL
same,zone of inhibition at 5 µg/disc,[3]; amount 5 μg,3.5 mm
same,zone of inhibition at 10 µg/disc,[3]; amount 10 μg,5 mm
same,Ndead larvae day 1,[4],0
same,Ndead larvae day 2,[4],7
same,Ndead larvae day 3,[4],1
same,Ndead larvae day 4,[4],1
same,Ndead larvae day 5,[4],0
same,Ndead larvae day 6,[4],0
same,Ndead larvae day 7,[4],4
same,Ndead larvae total,[4]; days 1-7,13
same,Ndead larvae total,[5]; days 1-12,26/12/14
same,Ndead larvae day 1,[5],0/0/0
same,Ndead larvae day 2,[5],1/0/0
same,Ndead larvae day 3,[5],3/2/4
same,Ndead larvae day 4,[5],11/5/8
same,Ndead larvae day 5,[5],7/2/0
same,Ndead larvae day 6,[5],1/1/1
same,Ndead larvae day 7,[5],1/1/0
same,Ndead larvae day 8,[5],0/0/1
same,Ndead larvae day 9,[5],0/0/0
same,Ndead larvae day 10,[5],2/0/0
same,Ndead larvae day 11,[5],0/1/0
same,Ndead larvae day 12,[5],0/0/0
